pIC50: −log10 of the molar value.
Experiments:
[1] = target: T1, ALK (Homo sapiens, UniProt Q9UM73); assay: ALK Kinase Assay (ELISA/TRF, PLC-γ substrate); format: biochemical; details: ALK kinase inhibition, 1 μM ATP; read-out: ALK Potency
T1 construct: host or cells: baculovirus expression system
Outline: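 Read-out is time-resolved fluorescence from a Eu-N1-labeled PT66 antibody that binds phosphorylated PLC-γ, the substrate coated at 10 μg/mL in TBS. ALK at 30 ng/ml starts the reaction, which runs 15 minutes at 37° C.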

[2] = target: T2, JAK2 (Homo sapiens, UniProt O60674); assay: Recombinant Human JAK2 Kinase Assay (TRF); format: biochemical; details: JAK2 kinase inhibition, 0.2 μM ATP; read-out: JAK2 Potency
T2 construct: host or cells: baculovirus expression system
T2 sequence (O60674 whole entry): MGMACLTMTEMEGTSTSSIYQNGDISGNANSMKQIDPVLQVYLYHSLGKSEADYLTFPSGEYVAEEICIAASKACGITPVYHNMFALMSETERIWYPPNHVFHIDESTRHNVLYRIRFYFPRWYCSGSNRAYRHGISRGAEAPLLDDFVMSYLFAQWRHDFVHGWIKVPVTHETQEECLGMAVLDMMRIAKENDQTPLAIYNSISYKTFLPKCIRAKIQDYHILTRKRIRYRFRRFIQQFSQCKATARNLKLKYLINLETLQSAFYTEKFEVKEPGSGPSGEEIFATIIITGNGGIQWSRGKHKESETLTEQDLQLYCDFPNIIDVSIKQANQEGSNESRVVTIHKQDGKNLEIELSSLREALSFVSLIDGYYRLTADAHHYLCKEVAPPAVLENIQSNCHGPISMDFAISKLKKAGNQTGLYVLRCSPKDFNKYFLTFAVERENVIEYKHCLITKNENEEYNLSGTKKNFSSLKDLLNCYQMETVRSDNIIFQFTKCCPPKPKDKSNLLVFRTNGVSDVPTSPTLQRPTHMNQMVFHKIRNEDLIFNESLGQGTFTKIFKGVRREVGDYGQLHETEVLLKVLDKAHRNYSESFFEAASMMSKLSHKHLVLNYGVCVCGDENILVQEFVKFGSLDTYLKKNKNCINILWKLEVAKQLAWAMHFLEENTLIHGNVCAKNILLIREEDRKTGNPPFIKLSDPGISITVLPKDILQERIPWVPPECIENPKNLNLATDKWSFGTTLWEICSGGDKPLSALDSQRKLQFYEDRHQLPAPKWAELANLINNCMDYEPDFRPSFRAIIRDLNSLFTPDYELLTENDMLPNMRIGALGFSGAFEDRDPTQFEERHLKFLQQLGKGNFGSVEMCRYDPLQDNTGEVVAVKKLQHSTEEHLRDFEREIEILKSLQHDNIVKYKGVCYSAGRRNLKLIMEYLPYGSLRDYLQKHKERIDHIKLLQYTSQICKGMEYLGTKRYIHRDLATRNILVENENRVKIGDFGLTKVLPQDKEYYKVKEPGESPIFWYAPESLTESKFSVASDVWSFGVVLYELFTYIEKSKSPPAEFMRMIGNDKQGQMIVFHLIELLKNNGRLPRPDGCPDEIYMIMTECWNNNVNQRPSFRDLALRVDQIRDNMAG
Outline: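 Europium-labelled PY100 antibody reported tyrosine phosphorylation of a Neutravidin-captured biotinyl 15-mer peptide by JAK2 (baculovirus-expressed, 15 ng/ml). Conditions: 20 mM HEPES pH 7.2, 0.2 μM ATP, 1 mM MnCl2, 0.1% BSA, DMSO 2.5% final, 20 min at room temperature.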

T1 sequence (Q9UM73 19-1620): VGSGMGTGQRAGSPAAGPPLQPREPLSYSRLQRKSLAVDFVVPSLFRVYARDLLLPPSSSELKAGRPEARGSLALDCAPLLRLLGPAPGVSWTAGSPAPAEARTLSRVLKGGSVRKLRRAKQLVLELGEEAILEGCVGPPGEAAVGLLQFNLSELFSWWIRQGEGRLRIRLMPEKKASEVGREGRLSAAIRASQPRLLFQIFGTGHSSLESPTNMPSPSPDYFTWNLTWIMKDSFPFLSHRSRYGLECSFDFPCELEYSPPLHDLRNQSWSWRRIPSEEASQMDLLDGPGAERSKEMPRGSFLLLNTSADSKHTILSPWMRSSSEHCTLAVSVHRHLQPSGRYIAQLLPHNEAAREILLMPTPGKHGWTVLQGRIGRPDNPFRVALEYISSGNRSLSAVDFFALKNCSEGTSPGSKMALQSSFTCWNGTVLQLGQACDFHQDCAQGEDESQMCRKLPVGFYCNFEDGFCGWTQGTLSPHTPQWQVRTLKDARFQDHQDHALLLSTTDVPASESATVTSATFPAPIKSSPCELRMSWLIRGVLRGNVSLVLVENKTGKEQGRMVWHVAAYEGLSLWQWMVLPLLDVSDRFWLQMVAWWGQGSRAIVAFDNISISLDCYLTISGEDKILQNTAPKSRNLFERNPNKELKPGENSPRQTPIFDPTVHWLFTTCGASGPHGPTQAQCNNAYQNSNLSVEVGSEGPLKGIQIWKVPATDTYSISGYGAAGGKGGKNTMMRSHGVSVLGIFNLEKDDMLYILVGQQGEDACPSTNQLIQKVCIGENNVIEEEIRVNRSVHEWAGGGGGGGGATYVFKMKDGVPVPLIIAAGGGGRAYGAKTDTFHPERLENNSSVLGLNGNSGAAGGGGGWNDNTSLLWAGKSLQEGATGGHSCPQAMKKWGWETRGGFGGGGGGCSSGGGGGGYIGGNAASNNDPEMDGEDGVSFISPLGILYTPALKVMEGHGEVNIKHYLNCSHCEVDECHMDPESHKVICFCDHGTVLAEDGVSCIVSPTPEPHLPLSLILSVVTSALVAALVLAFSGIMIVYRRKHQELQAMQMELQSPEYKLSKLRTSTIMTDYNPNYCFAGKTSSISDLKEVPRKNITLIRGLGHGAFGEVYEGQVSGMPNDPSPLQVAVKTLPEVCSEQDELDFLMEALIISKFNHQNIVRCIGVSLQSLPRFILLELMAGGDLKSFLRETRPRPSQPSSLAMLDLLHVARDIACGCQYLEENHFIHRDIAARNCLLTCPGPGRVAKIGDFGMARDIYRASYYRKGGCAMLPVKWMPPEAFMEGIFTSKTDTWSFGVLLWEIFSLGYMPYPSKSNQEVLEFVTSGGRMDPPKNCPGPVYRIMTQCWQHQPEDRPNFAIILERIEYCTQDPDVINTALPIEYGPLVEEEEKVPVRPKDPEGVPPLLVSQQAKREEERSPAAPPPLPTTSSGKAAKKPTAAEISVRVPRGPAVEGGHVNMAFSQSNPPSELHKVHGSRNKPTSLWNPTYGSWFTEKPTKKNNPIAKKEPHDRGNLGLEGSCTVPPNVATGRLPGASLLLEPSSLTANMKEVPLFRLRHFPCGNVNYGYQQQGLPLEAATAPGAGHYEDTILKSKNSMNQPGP

Compound	pIC50 [1]	pIC50 [2]
COc1cc(-c2ccc3cnc(Nc4ccc(C5CN(CC(N)=O)C5)cc4)nn23)c(OC)nn1 [Example 581, 2-(3-{4-[7-(3,6-Dimethoxy-pyridazin-4-yl)-pyrrolo[2,1-f][1,2,4]triazin-2-ylamino]-phenyl}-azetidin-1-yl)-acetamide]	6.00 to 7.00	> 7.00
CS(=O)(=O)N1Cc2cccc(-c3ccc4cnc(Nc5ccc(C6CN(CC(N)=O)C6)cc5)nn34)c2C1 [Example 582, 2-(3-{4-[7-(2-Methanesulfonyl-2,3-dihydro-1H-isoindol-4-yl)-pyrrolo[2,1-f][1,2,4]triazin-2-ylamino]-phenyl}-azetidin-1-yl)-acetamide]	5.00 to 6.00	> 7.00
COc1ccccc1-c1ccc2cnc(Nc3ccc(C4CN(CC(N)=O)C4)cc3)nn12 [Example 583, 2-(3-{4-[7-(2-Methoxy-phenyl)-pyrrolo[2,1-f][1,2,4]triazin-2-ylamino]-phenyl}-azetidin-1-yl)-acetamide]	6.00 to 7.00	> 7.00
COc1ccc(-c2ccc3cnc(Nc4ccc(C5CN(CC(N)=O)C5)cc4)nn23)cn1 [Example 584, 2-(3-{4-[7-(6-Methoxy-pyridin-3-yl)-pyrrolo[2,1-f][1,2,4]triazin-2-ylamino]-phenyl}-azetidin-1-yl)-acetamide]	6.00 to 7.00	> 7.00
Cn1cc(-c2ccc3cnc(Nc4ccc(C5CN(CC(N)=O)C5)cc4)nn23)cn1 [Example 585, 2-(3-{4-[7-(1-Methyl-1H-pyrazol-4-yl)-pyrrolo[2,1-f][1,2,4]triazin-2-ylamino]-phenyl}-azetidin-1-yl)-acetamide]	6.00 to 7.00	> 7.00
CN(c1ccccc1-c1ccc2cnc(Nc3ccc(C4CN(CC(N)=O)C4)cc3)nn12)S(C)(=O)=O [Example 586, 2-[3-(4-{7-[2-(Methanesulfonyl-methyl-amino)-phenyl]-pyrrolo[2,1-f][1,2,4]triazin-2-ylamino}-phenyl)-azetidin-1-yl]-acetamide]	> 7.00	> 7.00
NC(=O)CN1CC(c2ccc(Nc3ncc4ccc(-c5cccc6c5OCC6)n4n3)cc2)C1 [Example 587, 2-(3-{4-[7-(2,3-Dihydro-benzofuran-7-yl)-pyrrolo[2,1-f][1,2,4]triazin-2-ylamino]-phenyl}-azetidin-1-yl)-acetamide]	> 7.00	> 7.00
CC(C)Oc1cccc(-c2ccc3cnc(Nc4ccc(C5CCN(CC(N)=O)CC5)cc4)nn23)c1 [Example 588, 2-(4-{4-[7-(3-Isopropoxy-phenyl)-pyrrolo[2,1-f][1,2,4]triazin-2-ylamino]-phenyl}-piperidin-1-yl)-acetamide]	6.00 to 7.00	> 7.00
CN1CCN(CC2CCN(c3ccc(Nc4ncc5ccc(-c6cccc(S(=O)(=O)NC(C)(C)C)c6)n5n4)cc3)CC2)CC1 [Example 589, N-tert-Butyl-3-(2-{4-[4-(4-methyl-piperazin-1-ylmethyl)-piperidin-1-yl]-phenylamino}-pyrrolo[2,1-f][1,2,4]triazin-7-yl)-benzenesulfonamide]	> 7.00	> 7.00
CC(C)(C)NS(=O)(=O)c1cccc(-c2ccc3cnc(Nc4ccc(=O)[nH]c4)nn23)c1 [Example 590, N-tert-Butyl-3-[2-(6-oxo-1,6-dihydro-pyridin-3-ylamino)-pyrrolo[2,1-f][1,2,4]triazin-7-yl]-benzenesulfonamide]	5.00 to 6.00	> 7.00
COc1ccccc1-c1ccc2cnc(Nc3ccc(=O)[nH]c3)nn12 [Example 591, 5-[7-(2-Methoxy-phenyl)-pyrrolo[2,1-f][1,2,4]triazin-2-ylamino]-1H-pyridin-2-one]	5.00 to 6.00	> 7.00
CN(C)S(=O)(=O)c1cccc(Nc2ncc3ccc(-c4cccc(S(=O)(=O)NC(C)(C)C)c4)n3n2)c1 [Example 592, 3-({7-[3-(tert-butylsulfamoyl)phenyl]pyrrolo[2,1-f][1,2,4]triazin-2-yl}amino)-N,N-dimethylbenzenesulfonamide]	5.00 to 6.00	> 7.00
CN(C)S(=O)(=O)c1ccc(Nc2ncc3ccc(-c4cccc(S(=O)(=O)NC(C)(C)C)c4)n3n2)cc1 [Example 593, 4-({7-[3-(tert-butylsulfamoyl)phenyl]pyrrolo[2,1-f][1,2,4]triazin-2-yl}amino)-N,N-dimethylbenzenesulfonamide]	< 5.00	> 7.00
COc1ccccc1-c1ccc2cnc(Nc3cccc(S(=O)(=O)N(C)C)c3)nn12 [Example 594, 3-[7-(2-Methoxy-phenyl)-pyrrolo[2,1-f][1,2,4]triazin-2-ylamino]-N,N-dimethyl-benzenesulfonamide]	5.00 to 6.00	> 7.00
CN(c1ccccc1-c1ccc2cnc(Nc3ccc(=O)[nH]c3)nn12)S(C)(=O)=O [Example 596, N-Methyl-N-{2-[2-(6-oxo-1,6-dihydro-pyridin-3-ylamino)-pyrrolo[2,1-f][1,2,4]triazin-7-yl]-phenyl}-methanesulfonamide]	5.00 to 6.00	> 7.00
CS(=O)(=O)c1cccc(-c2ccc3cnc(Nc4ccc(F)c(Cl)c4)nn23)c1 [Example 597, (3-Chloro-4-fluoro-phenyl)-[7-(3-methanesulfonyl-phenyl)-pyrrolo[2,1-f][1,2,4]triazin-2-yl]-amine]	< 5.00	> 7.00
Cn1cc(-c2ccc3cnc(N4CCC(Oc5cccc(N)c5)CC4)nn23)cn1 [Example 598, 3-{1-[7-(1-Methyl-1H-pyrazol-4-yl)-pyrrolo[2,1-f][1,2,4]triazin-2-yl]-piperdin-4-yloxy}-phenylamine]	< 5.00	6.00 to 7.00
Cc1nc2cc(Nc3ncc4ccc(-c5cccc(S(C)(=O)=O)c5)n4n3)ccc2o1 [Example 599, [7-(3-Methanesulfonyl-phenyl)-pyrrolo[2,1-f][1,2,4]triazin-2-yl]-(2-methyl-benzoxazol-5-yl)-amine]	5.00 to 6.00	> 7.00
Cc1nc2cc(Nc3ncc4ccc(-c5cccc(S(=O)(=O)NC(C)(C)C)c5)n4n3)ccc2o1 [Example 600, N-tert-Butyl-3-[2-(2-methyl-benzoxazol-5-ylamino)-pyrrolo[2,1-f][1,2,4]triazin-7-yl]-benzenesulfonamide]	5.00 to 6.00	> 7.00
COc1ccccc1-c1ccc2cnc(Nc3cccc(OC4CCNCC4)c3)nn12 [Example 601, [7-(2-Methoxy-phenyl)-pyrrolo[2,1-f][1,2,4]triazin-2-yl]-[3-(piperidin-4-yloxy)-phenyl]-amine]	6.00 to 7.00	> 7.00
CS(=O)(=O)c1cccc(-c2ccc3cnc(Nc4ccc5c(c4)CCC(N4CCOCC4)CC5)nn23)c1 (centres unmarked) [Example 611, [7-(3-Methanesulfonyl-phenyl)-pyrrolo[2,1-f][1,2,4]triazin-2-yl]-(7-morpholin-4-yl-6,7,8,9-tetrahydro-5H-benzocyclohepten-2-yl)-amine]	6.00 to 7.00	> 7.00
CS(=O)(=O)c1ccc(-c2ccc3cnc(Nc4ccc5c(c4)CCC(N4CCOCC4)CC5)nn23)cc1 (centres unmarked) [Example 612, [7-(4-Methanesulfonyl-phenyl)-pyrrolo[2,1-f][1,2,4]triazin-2-yl]-(7-morpholin-4-yl-6,7,8,9-tetrahydro-5H-benzocyclohepten-2-yl)-amine]	6.00 to 7.00	> 7.00

Reference: patent US8471005B2 (Cephalon, Inc., priority 2008, dated 2013)
